Entries after “also recorded” stand apart in the source; their conditions may differ.
Key:
[1] = test system: AII binding sites in the brain; experiment: binding of AII antagonists to sections of brain slices; conditions: in words
[2] = test system: AII receptor subtype-1 (AII-1); conditions: cited from earlier work
[3] = test system: AII receptor subtype-2 (AII-2); conditions: cited from earlier work
[4] = test system: renin-induced disruption of passive avoidance retention; experiment: renin-disrupted passive avoidance retention; assay type: in vivo, male Sprague-Dawley rats; conditions: for protection against / prevention of renin-induced amnesia: co-administered with renin IVT
Description: Experimentally naive male Sprague-Dawley rats 100 to 125 days old (Charles River Breeding Laboratories, Kingston, N.Y.), weighing between 175 to 200 gm were used. The animals were housed four per cage (45.0 L×20.0 H×26.0 W cm) with free access to food and water. They were maintained on a 12 h light/dark cycle (lights on 0600 h) and at a room temperature of 22°±1° C. with relative humidity of 50±10%.
The experimental sessions were conducted in a two-compartment passive avoidance box. One compartment, made of clear plastic with a perforated clear plastic floor, measured 21(L)×24.5(H)×17(W) cm and was illuminated with a 60 watt incandescent light bulb placed 36 cm above the floor. The other compartment, made of black plastic, measured 30.5 (L)×20.3 (H)×21.5 (W) cm with a floor made of 4 mm stainless steel rods spaced 1.2 cm apart. A grid floor shocker (Coulbourn Instruments) was connected to the steel rods and provided scrambled footshock. The two compartments were separated by a solenoid-operated slide door (Lafayette Instrument Co., Lafayette, Ind.). An electronic counter (Coulbourn Instruments), triggered by the opening or closing of the slide door, recorded acquisition and retention latencies (latencies were defined as the time it took an animal to enter the dark compartment).
Passive avoidance training began by placing the rat into the clear compartment of the two-compartment passive avoidance box. Following a 10 sec delay, the slide door for the dark compartment was raised. Once the rat moved completely into the dark compartment (all four paws on the shock grid floor) the slide door was lowered, and after a 10 sec. delay, a 1.0 mA shock was applied to the grid floor for three sec. A second three s shock was delivered after an additional 10 sec delay. The rats were immediately removed from the dark compartment and returned to their home cage. A retention test was given 24 h later. It proceeded in the same manner as the training session except that no shock was applied to the grid floor when the rats were provided access to the dark compartment for a maximum of 300 sec.
Doses are expressed as the free base weight of each compound.

uphill avoidance = conditions: in words; 30 mg/kg PO, acute; cited from earlier work
[5] = test system: scopolamine-induced amnesia of a PA response; conditions: in words; 1, 3 and 10 mg/kg PO three times per day; cited from earlier work
[6] = test system: scopolamine-induced impairment of eight arm radial maze performance; conditions: in words; 3 mg/kg IP; cited from earlier work
[7] = test system: ACh in the striatum and hypothalamus; conditions: in words; acute or repeated administration; cited from earlier work
avoidance learning = conditions: in words, cited from earlier work
[8] = test system: light/dark habituation performance; conditions: in words; subchronic treatment; cited from earlier work
[9] = test system: anticholinergic scopolamine-induced disruption of performance; conditions: in words; daily treatment; cited from earlier work
[10] = test system: passive avoidance (PA) response; conditions: in words; injected into dorsal neostriatum; cited from earlier work
[11] = test system: release of ACh in entorhinal cortex from rat brain; conditions: in words; cited from earlier work
[12] = test system: AII in cerebrospinal fluid (CSF); conditions: after renin into lateral ventricle; increased from 40; cited from earlier work
[13] = compound 10 μg/5 μL IVT + renin 1.0 μg/5 μL IVT
[14] = compound 30 μg/5 μL IVT + renin 1.0 μg/5 μL IVT
[15] = compound 100 μg/5 μL IVT + renin 1.0 μg/5 μL IVT

**Q.** Which results are given for `O[C@H](CS)[C@H](O)CS` (racemic) [DTT, dithiothreitol]?
**A.** sensitivity of AII binding sites in the brain, minor clusters (AII-1 receptors) ([1]; AII-1): DTT-sensitive; sensitivity of the majority of AII binding sites in the brain (AII-2 receptors) [1]: DTT-sensitive; inactivation of AII-1 receptor by DTT ([2]; in words): particularly sensitive to inactivation; inactivation of AII-2 receptor by DTT ([3]; in words): resistant

**Q.** Which “Median Retention Latency” value [4, 13] does the source give for `CCCc1nc(C(F)(F)F)c(C(=O)O)n1Cc1ccc(-c2ccccc2-c2nnn[nH]2)cc1` [Compound C, 2-n-propyl-1-[(2'-(1H-tetrazol-5-yl)biphenyl-4-yl)methyl]-4-trifluoromethylimidazole-5-carboxylic acid] here?
**A.** Its value is 264 s.

**Q.** And the “Median Retention Latency” value [4, 14]?
**A.** The value was 300 s.

**Q.** And the “Median Retention Latency” value [4, 15]?
**A.** Its value is 34.5 s.

**Q.** And the “protection against / prevention of renin-induced amnesia” value ([4]; in words)?
**A.** Its value is “protected against the amnesia”.

**Q.** What does the source list for `CCCc1nc(C(F)(F)F)c(CO)n1Cc1ccc(-c2ccccc2-c2nnn[nH]2)cc1` [Compound D, 2-n-propyl-5-hydroxymethyl-1-[(2'-(1H-tetrazol-5-yl)biphenyl-4-yl)methyl]-4-trifluoromethylimidazole]?
**A.** Median Retention Latency [4, 14]: 242 s; Median Retention Latency [4, 15]: 10 s; protection against / prevention of renin-induced amnesia ([4]; in words): protected against the amnesia

**Q.** Which results are given for `Cc1cc(Cn2cnc3c2CC(C(=O)O)N(C(=O)C(c2ccccc2)c2ccccc2)C3)ccc1N` (stereo not drawn) [EXP655, 1-(4-amino-3-methylphenyl)methyl-5-diphenylacetyl-4,5,6,7-tetrahydro-1H-imidazo[4,5-c]pyridine-6-carboxylic acid]?
**A.** sensitivity of the majority of AII binding sites in the brain (AII-2 receptors) [1]: EXP655-sensitive; Median Retention Latency ([4]; compound 0.1 μg/5 μL IVT + renin 1.0 μg/5 μL IVT): 19 s; Median Retention Latency ([4]; compound 0.3 μg/5 μL IVT + renin 1.0 μg/5 μL IVT): 22 s; Median Retention Latency ([4]; compound 1.0 μg/5 μL IVT + renin 1.0 μg/5 μL IVT): 15 s; Median Retention Latency ([4]; compound 3.0 μg/5 μL IVT + renin 1.0 μg/5 μL IVT): 29 s; Median Retention Latency [4, 13]: 15 s; Median Retention Latency [4, 14]: 67 s; Median Retention Latency [4, 15]: 16 s; protection against / prevention of renin-induced amnesia ([4]; in words): much less effective in preventing the amnesia; IC50 ([2]; AII-1 site, rat adrenal cortex, Chiu et al. 1989, read-out: inhibitory constant IC50 value): ~300 µM; affinity/specificity for the AII-1 site ([2]; in words, rat adrenal cortex): very low affinity; IC50 ([3]; AII-2 site, rat adrenal cortex, Chiu et al. 1989, read-out: inhibitory constant IC50 value): ~0.1 µM

**Q.** For `CCOC(=O)C(CCc1ccccc1)NC(C)C(=O)N1CC2(CC3CCC2CC3)CC1C(=O)O` (stereo not drawn) [Hoe 288], which “performance during retention testing, uphill avoidance” value (uphill avoidance) is on record?
**A.** The value was “improved performance during retention testing”.

**Q.** And the “effect on scopolamine-induced PA amnesia” value [5]?
**A.** The value was “partially reversed the amnesia”.

**Q.** What about the “effect on muscarinic receptor blockade impairment of performance” value [6] of the same molecule?
**A.** Its value is “partially antagonized the effects of muscarinic receptor blockade on performance”.

**Q.** What about the “change in ACh in the striatum and hypothalamus” value [7] of the same molecule?
**A.** Its value is “significant decrease in ACh in the striatum and hypothalamus”.

**Q.** Which “prevention of renin-induced amnesia in PA task by IVT captopril” value ([4]; in words, own laboratory, captopril IVT) does the source give for `C[C@H](CS)C(=O)N1CCC[C@H]1C(=O)O` [captopril] here?
**A.** The value was “prevented”.

**Q.** And the “effect on renin-induced avoidance disruption” value (avoidance learning; IVT prior to renin injection)?
**A.** Its value is “prevented the renin-induced avoidance disruption”.

**Q.** What about the “rate of acquisition of light/dark habituation performance” value [8] of the same molecule?
**A.** Its value is “increased the rate of acquisition”.

**Q.** And the “effect on scopolamine-induced disruption of performance” value [9]?
**A.** Its value is “prevented”.

**Q.** For `NC(=O)[C@@H]1CCCN1C(=O)[C@H](Cc1cnc[nH]1)NC(=O)[C@@H]1CCC(=O)N1` [thyrotropin releasing hormone], which “effect on retention of a PA response” value [10] is on record?
**A.** Its value is “no effect”.

**Q.** For “Angiotensin II (DRVYIHPF; Angiotensin-2; UniProt P01019 25-32, looked up) [AII]”, which “effect on retention of a PA response” value [10] is on record?
**A.** The value was “disruption in retention of a PA response”.

**Q.** And the “effect on basal levels of ACh release” value [11]?
**A.** The value was “without effects on basal levels”.

**Q.** What about the “effect on potassium-stimulated release of ACh” value [11] of the same molecule?
**A.** Its value is “reduced potassium-stimulated release of ACh”.

**Q.** For “[1-sarcosine, 8-threonine]angiotensin II”, which “antagonism of AII effect on ACh release” value [11] is on record?
**A.** Its value is “antagonized”.

**Q.** With lysine-8-vasopressin as the molecule, how does the “effect on retention of a PA response” value [10] read?
**A.** Its value is “no effect”.

B1: renin: Renin (Sigma Chemicals), a stimulator of endogenous AII biosynthesis (protein, UniProt P00797 67-406, looked up)
Renin: LTLGNTTSSVILTNYMDTQYYGEIGIGTPPQTFKVVFDTGSSNVWVPSSKCSRLYTACVYHKLFDASDSSSYKHNGTELTLRYSTGTVSGFLSQDIITVGGITVTQMFGEVTEMPALPFMLAEFDGVVGMGFIEQAIGRVTPIFDNIISQGVLKEDVFSFYYNRDSENSQSLGGQIVLGGSDPQHYEGNFHYINLIKTGVWQIQMKGVSVGSSTLLCEDGCLALVDTGASYISGSTSSIEKLMEALGAKKRLFDYVVKCNEGPTLPDISFHLGGKEYTLTSADYVFQESYSSKKLCTLAIHAMDIPPPTGPTWALGATFIRKFYTEFDRRNNRIGFALAR
**Q.** Which “Median Retention Latency” value ([4]; Table 1, renin 0.1 μg/5 μL IVT) does the source give for B1 here?
**A.** Its value is 254 s.

**Q.** What about the “Median Retention Latency” value ([4]; Table 1, renin 0.5 μg/5 μL IVT) of the same molecule?
**A.** Its value is 117 s.

**Q.** What about the “Median Retention Latency” value ([4]; Table 1, renin 1.0 μg/5 μL IVT) of the same molecule?
**A.** The value was 27 s.

**Q.** What about the “Median Retention Latency” value ([4]; Table 1, renin 3.0 μg/5 μL IVT) of the same molecule?
**A.** The value was 56.5 s.

**Q.** What about the “Median Retention Latency” value ([4]; Table 1, renin 5.0 μg/5 μL IVT) of the same molecule?
**A.** The value was 17 s.

**Q.** And the “Median Retention Latency” value ([4]; Table 2, renin 1.0 μg/5 μL IVT, Compound C 0 (renin-alone group))?
**A.** Its value is 48 s.

**Q.** What about the “Median Retention Latency” value ([4]; Table 3, renin 1.0 μg/5 μL IVT, Compound D 0 (renin-alone group)) of the same molecule?
**A.** The value was 32 s.

**Q.** And the “Median Retention Latency” value ([4]; Table 4, renin 1.0 μg/5 μL IVT, EXP655 0 (renin-alone group))?
**A.** The value was 15.5 s.

**Q.** What about the “memory deficit / amnesia in PA task” value ([4]; in words, renin IVT) of the same molecule?
**A.** Its value is “produces a reliable memory deficit in rats; also recorded: dose-related amnesia”.

**Q.** What about the “effect on avoidance learning” value (avoidance learning; renin into lateral ventricle (IVT)) of the same molecule?
**A.** Its value is “disruption of avoidance learning”.

**Q.** And the “AII in cerebrospinal fluid” value [12]?
**A.** Its value is “about 5000 fmol per mL”.

Source: US5137906A, “Treatment of central nervous system disorders with benzimidazole angiotensin-II receptor antagonists” (E. I. Du Pont de Nemours and Company, priority 1990, dated 1992)
